Consider 14 compounds from patent US8889861B2, “Crystalline forms of a purine derivative” (Cyclacel Limited, priority 2010, dated 2014).

Data set [1] in a line: Storage in a humidity chamber at 25° C. (75%, 94% or 97% RH). The format is physicochemical. The following applies: for observation on storage: 25° C./97% RH, time not stated. How it is done: However, a large proportion of the peaks corresponding to compound (I) appear as broadened multiplets, probably due to the presence of the sulfonic acid group, making successful assignment non-trivial. A significant quantity of residual TBME was also visible, though this is believed to be unbound solvent rather than a solvate. XRPD analysis confirmed the material to be crystalline. […] Deliquescence of a sample of the product was observed after storage in a humidity chamber at 25° C. and 94% RH for 2 hours. […]

A short description of data set [2]: Gravimetric vapour sorption (GVS) / hygroscopicity. In kind it is physicochemical. The following applies: for mass increase (GVS): 25° C., 40-90% RH; for reversible uptake of water from 0 to 90% RH: GVS. How it is done: Gravimetric Vapour Sorption (GVS)
Sorption isotherms were obtained using a SMS DVS Intrinsic moisture sorption analyser, controlled by SMS Analysis Suite software. […] The humidity was controlled by mixing streams of dry and wet nitrogen, with a total flow rate of 200 ml. min^−1. The relative humidity was measured by a calibrated Rotronic probe (dynamic range of 1.0-100% RH), located near the sample. The weight change, (mass relaxation) of the sample as a function of % RH was constantly monitored by the microbalance (accuracy ±0.005 mg). Typically 5-20 mg of sample was placed in a tared mesh stainless steel basket under ambient conditions. The sample was loaded and unloaded at 40% RH and 25° C. (typical room conditions). A moisture sorption isotherm was performed as outlined below (2 scans giving 1 complete cycle). The standard isotherm was performed at 25° C. at 10% RH intervals over a 0.5-90% RH range.
Method Parameters for SMS DVS Intrinsic Experiments:
The sample was recovered after completion of the isotherm and re-analysed by XRPD.
Hiden Isochema Moisture Sorption Analyser (IGAsorp)
Sorption isotherms were obtained using a Hiden Isochema Moisture Sorption Analyser (IGAsorp) controlled by IGAsorp Systems Software V6.50.48. […] The humidity was controlled by mixing streams of dry and wet nitrogen, with a total flow rate of 250 ml. min^−1. The instrument was verified for relative humidity content by measuring three calibrated Rotronic salt solutions (10-50-88%). The weight change of the sample as a function of % RH was monitored by microbalance (accuracy ±0.005 mg). A defined amount of sample was placed in a tared mesh stainless steel basket under ambient conditions. A full experimental cycle consisted of two scans (sorption and desorption) at a constant temperature (25° C.) and 10% RH intervals over a 10-90% RH range (90 minutes for each humidity level).
11.254 mg of sample was placed in a tarred mesh stainless steel basket under ambient conditions. A full experimental cycle consisted of two scans (sorption and desorption) at a constant temperature (25° C.) and 10% RH intervals over a 40-90% range (180 minutes for each humidity level). The mass increase of approximately 0.09 mg (−0.8%) and the facile uptake and loss relative to humidity level indicates a non-hygroscopic sample that dampens with surface moisture only.

Another data set can be described thus: Storage at 40° C./75% RH. In kind it is physicochemical. The following applies: for 40° C./75% RH, XRPD / 40° C./75% RH, appearance: 7 d; for 40° C./75% RH, observation or form change: storage time not stated. How it is done: A new XRPD pattern corresponding to the HBr salt was obtained upon storage of HBr Pattern 1 (Form J) at 40° C./75% relative humidity.
The sample was dried in a vacuum oven at 40° C./3 mbar for 18 h to yield the L-malate (Form R) as a white solid. NMR analysis of the sample of Form R formed during the storage of Form Q at 40° C./75% RH confirmed it to be a mono-malate salt.

The conditions of data set [3]: 24 h.
Procedure: Thermodynamic Aqueous Solubility
The suspension was equilibrated at 25° C. for 24 hours then the pH was measured. The suspension was then filtered through a glass fibre C filter into a 96 well plate. The filtrate was then diluted by a factor of 101. Quantitation was by HPLC with reference to a standard solution of approximately 0.1 mg. ml^−1 in DMSO. Different volumes of the standard, diluted and undiluted sample solutions were injected.
The suspension was equilibrated at 25° C. for 24 hours. The suspension was then filtered through a filter into an HPLC vial. The filtrate was then diluted by an appropriate factor. Quantification was executed by HPLC with reference to a standard solution of 0.5 mg in 1 mL acetonitrile/water (1:1). Different volumes of the standard, diluted and undiluted sample solutions were injected.
The pH of the solution post solubility was pH 5.
The nature of data set [4]: Polymorph interconversion of L-tartrate Forms D and E (slurry conversion). The following applies: slurry: 1:1 Form D:Form E, 45° C., 48 hours, ethyl acetate, IPA, IMS or acetonitrile.
Procedure: Form E of the L-Tartrate salt of compound (I) was also prepared by slurry conversion from four different solvents (ethyl acetate, IPA, IMS or acetonitrile). A 1:1 mixture of Form by weight of D: Form E L-Tartrate salt (200 mg total) was heated at 45° C. over 48 hours in 2 ml of solvent prior to filtration and analysis.

≈ marks a conversion by molar mass, not a printed value. Where “and” joins values, the source holds several entries; their conditions need not be identical. Equal values may be shown once. Entries after “also recorded” stand apart in the source; their conditions may differ. Read-outs that look alike come from different tables or passages of the source.

Turning to `CC[C@H](Nc1nc(NCc2cnc(C)cc2C)c2ncn(C(C)C)c2n1)[C@@H](C)O` [Form F], in data set [1] (25° C. and 75% RH for 70 hours), the XRPD after storage entry is recorded as “consistent with that of the original product” and the appearance after storage entry is reported as “unchanged”. Moreover, in data set [1] (25° C. and 94% RH for 3 days), the XRPD after storage result is “same pattern as obtained for the initial product, but with a significant amorphous halo” and the appearance after storage result was “slightly tacky, though it had not deliquesced”. In addition, in data set [2], the “hydrate formation at high RH (GVS)” value is reported as “no hydrate is formed” and the “hygroscopicity” value is recorded as “hygroscopic above only 70% RH”.
Take `CC[C@H](Nc1nc(NCc2cnc(C)cc2C)c2ncn(C(C)C)c2n1)[C@@H](C)O` [Form M]: the “40° C./75% RH, XRPD” value in the data set “Storage at 40° C./75% RH” is given as “consistent with Maleate”. In the data set “Storage at 40° C./75% RH”, the “40° C./75% RH, appearance” value is listed as “Sticky solid”. Also, the “40° C./75% RH, observation or form change” value in “Storage at 40° C./75% RH” (listed as Maleate Pattern 1) is “sticky solid”. Besides, in data set [3], the “AQ Solubility” value was 73 mg/mL. The observation on storage entry in data set [1] is on record as “deliquescence”. Besides, the “hygroscopicity” value was “hygroscopic above 75% RH” in data set [2] (listed as Maleate Pattern 1) and “hygroscopic above 40° C./70% RH” in data set [2] (listed as maleate salt).
Take `CC[C@H](Nc1nc(NCc2cnc(C)cc2C)c2ncn(C(C)C)c2n1)[C@@H](C)O` [Form E]: in data set [3], the Aqueous solubility is 43.9 mg/mL and the aqueous solubility stood at 43.905 mg/mL (≈ 110 mM). Besides, the “hygroscopicity” value in data set [2] is “only slightly hygroscopic”.
Regarding `CC[C@H](Nc1nc(NCc2cnc(C)cc2C)c2ncn(C(C)C)c2n1)[C@@H](C)O` [Form J], the “40° C./75% RH, observation” value in “Storage at 40° C./75% RH” (15 h) is “deliquescence and 15 h - Deliquescence”. Moreover, in “Storage at 40° C./75% RH”, the “40° C./75% RH, XRPD” value is on record as “conversion to a new”; the “40° C./75% RH, appearance” value was “crystallisation was observed; also recorded: Sticky solid”; the “40° C./75% RH, observation or form change” value is given as “conversion to a new Pattern—HBr Pattern 2 (Form K)”. Besides, the “AQ Solubility” value in data set [3] is more than 30 mg/mL.
For the compound `CC[C@H](Nc1nc(NCc2cnc(C)cc2C)c2ncn(C(C)C)c2n1)[C@@H](C)O` [Form D], in data set [1] (25° C. and 75% RH for 4 days), the XRPD after storage entry is “consistent with that of the original product” and the appearance after storage entry is “unchanged”. For the same compound, in data set [1] (25° C. and 94% RH for 70 hours), the XRPD after storage entry is “some peaks corresponding to those in the pattern acquired for the original product, though a significant amorphous halo was also visible” and the appearance after storage result is recorded as “slightly tacky, though it had not deliquesced”. Further, in data set [2], the “hydrate formation at high RH (GVS)” value is reported as “no hydrate is formed” and the “hygroscopicity” value is recorded as “hygroscopic only above 70% RH”. Besides, the “relative stability of the L-tartrate polymorphs” value in data set [4] is “metastable”.
In the case of `CC[C@H](Nc1nc(NCc2cnc(C)cc2C)c2ncn(C(C)C)c2n1)[C@@H](C)O` [Form C], in data set [2], the “hygroscopicity” value was “low hygroscopicity; also recorded: not hygroscopic”. Besides, in data set [2] (GVS at 25° C.), the “uptake of water between 60 and 90% RH” value came out at 0.5 % by weight; the “weight loss between 10 and 0% RH” value was found to be 0.5%.
`CC[C@H](Nc1nc(NCc2cnc(C)cc2C)c2ncn(C(C)C)c2n1)[C@@H](C)O` [Form L]: the “40° C./75% RH, observation” value in “Storage at 40° C./75% RH” (15 h) turned out to be 15 h - Deliquesced. For the same compound, the “40° C./75% RH, observation” value in the data set “Storage at 40° C./75% RH” (15 h, listed as Mesylate Pattern 1) is recorded as “deliquescence”. The “40° C./75% RH, appearance” value in “Storage at 40° C./75% RH” was 7 d - No change. Moreover, the “40° C./75% RH, observation or form change” value in the data set “Storage at 40° C./75% RH” (listed as mesylate salt) is “deliquescence”. In addition, in data set [3], the “AQ Solubility” value worked out at 137 mg/mL and the Aqueous solubility was approximately 140 mg/mL. Moreover, the observation on storage entry in data set [1] is given as “deliquescence”. Further, the “hygroscopicity” value in data set [2] (listed as Mesylate Pattern 1) is “hygroscopic”.
Turning to `CC[C@H](Nc1nc(NCc2cnc(C)cc2C)c2ncn(C(C)C)c2n1)[C@@H](C)O` [Form I], in the data set “Storage at 40° C./75% RH”, the “40° C./75% RH, XRPD” value was “conversion to HCl”; the “40° C./75% RH, appearance” value is recorded as “Sticky solid”; the “40° C./75% RH, observation or form change” value is recorded as “unstable; also recorded: conversion to HCl Pattern 1 (Form H)”. Also, the “AQ Solubility” value in data set [3] was more than 79 mg/mL.
Regarding `CC[C@H](Nc1nc(NCc2cnc(C)cc2C)c2ncn(C(C)C)c2n1)[C@@H](C)O` [Form Q], the “40° C./75% RH, observation” value in the data set “Storage at 40° C./75% RH” (15 h) is listed as 15 h - Deliquescence; in “Storage at 40° C./75% RH” (15 h, listed as L-malate Pattern 1), “deliquescence”; in the data set “Storage at 40° C./75% RH” (72 h), “crystallisation had occurred”; in the data set “Storage at 40° C./75% RH” (72 h, listed as L-malate Pattern 1), “crystallisation of a new solid form”; in “Storage at 40° C./75% RH” (inside 2 h) it was “deliquescence”. In addition, the “40° C./75% RH, appearance” value in “Storage at 40° C./75% RH” is on record as “White solid”. Besides, the “AQ Solubility” value in data set [3] turned out to be 92 mg/mL. In data set [2] (listed as L-malate Pattern 1), the “hygroscopicity” value is listed as “hygroscopic”.
Take `CC[C@H](Nc1nc(NCc2cnc(C)cc2C)c2ncn(C(C)C)c2n1)[C@@H](C)O` [Form A]: the “hygroscopicity” value in data set [2] is recorded as “non-hygroscopic”. The “mass increase (GVS)” value in data set [2] is given as −0.8%; in data set [2] (11.254 mg sample), “approximately 0.09 mg”. In data set [2] (GVS at 25° C.), the “XRPD of sample post GVS” value is given as “no change”.
With `CC[C@H](Nc1nc(NCc2cnc(C)cc2C)c2ncn(C(C)C)c2n1)[C@@H](C)O` [Form H], the “40° C./75% RH, observation” value in “Storage at 40° C./75% RH” (30 min) is reported as 30 min - Deliquescence. For the same compound, the “AQ Solubility” value in data set [3] turned out to be 75 mg/mL.
On to `CC[C@H](Nc1nc(NCc2cnc(C)cc2C)c2ncn(C(C)C)c2n1)[C@@H](C)O` [Form G], for which, in data set [1] (25° C. and 75% RH for 70 hours), the XRPD after storage result was “consistent with that of the original product, but with a slightly larger amorphous halo” and the appearance after storage entry was “slightly tacky”. Besides, the appearance after storage entry in data set [1] (25° C. and 94% RH for 2 hours) is “Deliquescence”. In addition, the “hygroscopicity” value in data set [2] is “highly hygroscopic above 75% RH”.
For `CC[C@H](Nc1nc(NCc2cnc(C)cc2C)c2ncn(C(C)C)c2n1)[C@@H](C)O` [Form P], the “40° C./75% RH, appearance” value in the data set “Storage at 40° C./75% RH” is given as “No visual change”. In addition, in data set [3], the “AQ Solubility” value was determined as 54 mg/mL and the Aqueous solubility entry is recorded as “approximately 50 mg. ml^−1”. Moreover, in data set [2], the “hygroscopicity” value is recorded as “Non-hygroscopic, reversible uptake of” and the “reversible uptake of water from 0 to 90% RH” value (“reversible uptake … to 90% RH” for short) is on record as <0.4 wt % from 0 to 90% RH. Further, in data set [2] (listed as Fumarate Pattern 1), the “reversible uptake … to 90% RH” value was “less than 0.4 wt %” and the “hygroscopicity” value was “non-hygroscopic”.
As for `CC[C@H](Nc1nc(NCc2cnc(C)cc2C)c2ncn(C(C)C)c2n1)[C@@H](C)O` [Form R], in data set [2], the “hygroscopicity” value is “less hygroscopic than the benzensulfonate and citrate salts”; the “reversible uptake … to 90% RH” value is reported as “Reversible uptake of ~2.5 wt % H2O from 0 to 90% RH”.
